One compound from US20170369470A1, “Cyclic Compounds and Uses Thereof” (Karyopharm Therapeutics Inc., priority 2014, published 2017) can be followed below.

pIC50: −log10 of the molar value.

Format in all cases: cell-based
For one assay, the system named is MS751 cells. The assay is described as follows: MTT cell proliferation assay, MS751 cells. Particulars: MS751 cells (human cervix squamous cell carcinoma metastasis); incubation approximately 64-72 hours; read-out: MTT Assay IC50 MS 751. The protocol:
(§1) The MTT cell proliferation assay was used to study the cytotoxic properties of the compounds. The assay was performed according to the method described by Roche Molecular Biochemicals, with minor modifications. The assay is based on the cleavage of the tetrazolium salt, MTT, in the presence of an electron-coupling reagent. The water-insoluble formazan salt produced must be solubilized in an additional step. Cells grown in a 96-well tissue culture plate were incubated with the MTT solution for approximately 4 hours. After this incubation period, a water-insoluble formazan dye formed. After solubilization, the formazan dye was quantitated using a scanning multi-well spectrophotometer (ELISA reader). […] The cells were seeded at 5,000-10,000 cells in each well of 96-well plate in 100 μL of fresh culture medium and were allowed to attach overnight. The stock solutions of the compounds were diluted in 100 μL cell culture medium to obtain eight concentrations of each test compound, ranging from 1 nM to 30 μM. […] All optical densities were measured at 490 nm using a Vmax Kinetic Microplate Reader (Molecular Devices). In most cases, the assay was performed in duplicate and the results were presented as a mean percent inhibition to the negative control±SE. The following formula was used to calculate the percent of inhibition: Inhibition (%)=(1−(ODo/OD))×100.
(§2) The compounds were tested against MS751, Z138 and 3T3 cells. The MS751 cell line is derived from a metastasis to lymph node of human cervix from a patient diagnosed with squameous cell carcinoma of the cervix. The Z138 cell line is a mature B-cell acute lymphoblastic leukemia cell line derived from a patient with chronic lumphocytic leukemia. 3T3 cells are standard fibroblast cells; they were originally isolated from Swiss mouse embryo tissue.

For the next assay, the system named is Z138 cells. Briefly: MTT cell proliferation assay, Z138 cells. Particulars: Homo sapiens, Z-138; Z138 cells (mantle cell lymphoma line); incubation approximately 64-72 hours. On the procedure: as §1, §2
The next assay concerns 3T3 cells. The assay is described as follows: MTT cell proliferation assay, 3T3 cells. The conditions noted are these: NIH3T3; 3T3 fibroblast cells (Swiss mouse embryo); incubation approximately 64-72 hours. On the procedure: as §1, §2

Usually pIC50 stands for −log10 of the IC50, conventionally taken in molar units. On to `Nc1ccc(/C=C/C(=O)NCc2cc3cc(-c4ccc(C(=O)N5CCC(F)(F)CC5)cc4)cc(-c4ccc(F)cc4)c3s2)cn1` [compound 536, (E)-3-(6-aminopyridin-3-yl)-N-((5-(4-(4,4-difluoropiperidine-1-carbonyl)phenyl)-7-(4-fluorophenyl)benzo[b]thiophen-2-yl)methyl)acrylamide], for which the results for the pIC50 with MS751 cells, in the assay on Z138 cells and in the assay on 3T3 cells were more than 6.00, more than 6.00 and less than 5.00, respectively.
